Experimental data from paper PMC9081833, “Discovery of acylphloroglucinol-based meroterpenoid enantiomers as KSHV inhibitors from Hypericum japonicum” (RSC Advances, 2018).
Where two headings read alike, the source gives them in different places.

Assays:
[1] = in vitro; settings: human, CC50, 50% cytotoxic concentration, iSLK.219 cells, 48 h, with Dox and NaB
[2] = test system: KSHV lytic replication; test: Field-based 3D QSAR model of anti-KSHV activity; design: species or system Kaposi's sarcoma associated herpesvirus (KSHV); unit not given here; settings: log IC50 of the anti-KSHV IC50
From the text: Qualitative analysis was followed by quantitative SAR (QSAR) modelling utilizing the Field-Based QSAR Panel implemented in Schrödinger Suite[14] to set up CoMFA/CoMSIA models from these enantiomers. These enantiomers first superimposed using the flexible shape-based alignment method (Fig. 6). […] Experimental activities of additional analogues would likely provide a better model. Moreover, correlation between the observed activities and the predicted activities was plotted in Fig. 7.
QSAR studies were conducted with Schrödinger Suite 2017-1.
A data set (Table 3) was randomly assigned into training and test sets with a ratio of approximately 4/1, and their activities (IC50) were converted to the logarithm (log IC50). The minimized conformations of these enantiomers were generated utilizing LigPrep and aligned according to the flexible shape-based alignment method. The force field was used and the maximum PLS factors were set as 1/5 of the total number of the training set in order to avoid over-fitting. The parameters that were not mentioned were left as defaults.

[3] = test system: Human iSLK.219 cells; settings: 50% cytotoxic concentration, 48 h, with Dox and NaB
[4] = test system: KSHV lytic replication; settings: for IC50: supernatant of iSLK.219 cells treated 48 h used to infect Vero cells 48 h, GFP readout; for Selective index (CC50/IC50): human
[5] = test system: KSHV lytic replication; test: microbe, parasite or virus in culture; settings: Human gammaherpesvirus 8, Vero, 48 h, supernatant of iSLK.219 cells treated 48 h used to infect Vero cells 48 h, GFP readout
[6] = test system: KSHV lytic replication; test: in vitro; settings: human, Selective index (CC50/IC50)

Row | SMILES | CC50 [1] | Observed activity [2] | CC50 [3] | IC50 [4] | Selective index (CC50/IC50) [4] | IC50 [5] | selectivity ratio [6]
1 | CC(C)C(=O)c1c(O)cc(O)c2c1OC1(C)CCC(C(C)(C)O)OC1C2 (stereo not shown) [Compound 6a] | 141 µM | 1.247 |  |  |  |  | 
2 | CC(C)C(=O)c1c(O)cc(O)c2c1OC(C)(C)C1CCC(C)(O)C1C2 (stereo not shown) [Compound 7b] |  | 1.464 | > 300 µM | 39.8 µM |  |  | 
3 | CC(C)=CCCC(C)(O)C1Cc2c(O)cc(O)c(C(=O)c3ccccc3)c2O1 (single isomer, unassigned; (-)) [Compound 4b, (−)-japonicol H] |  | 1.469 | > 200 µM | 29.5 µM | >6.79 |  | 
4 | C=C(C)C1CCC2(C)Oc3c(c(O)cc(O)c3C(=O)C(C)C)CC12 (single isomer, unassigned; (+)) [Compound 1a, (+)-japonicol E] | 195 µM | 0.919 |  | 8.3 µM | 23.49 |  | 
5 | CC(C)C(=O)c1c(O)cc(O)c2c1OC1(C)CCC(C(C)(C)O)OC1C2 (stereo not shown) [Compound 6b] |  | 1.600 | 174 µM |  |  |  | 
6 | CC(C)=CCCC(C)(O)C1Cc2c(O)cc(O)c(C(=O)C(C)C)c2O1 (single isomer, unassigned; (-)) [Compound 3b, (−)-japonicol G] |  | 0.826 | 50.1 µM | 6.7 µM | 7.48 |  | 
7 | CC(C)C(=O)c1c(O)cc(O)c(CC2C(C(C)(C)O)CCC2(C)O)c1O (stereo not shown) [Compound 8a] | > 300 µM | 1.602 |  | 40 µM | >7.50 |  | 
8 | CC(C)=CCCC1(C)Oc2c(c(O)cc(O)c2C(=O)C(C)C)CC1O (single isomer, unassigned; (-)) [Compound 2b, (−)-japonicol F] |  | 1.436 | 150 µM | 27.3 µM | 5.50 |  | 
9 | CC(C)C(=O)c1c(O)cc(O)c2c1OC(C)(C)C1CCC(C)(O)C1C2 (stereo not shown) [Compound 7a] | 221 µM | 0.942 |  | 17.7 µM |  |  | 
10 | CC(C)=CCCC1(C)Oc2c(c(O)cc(O)c2C(=O)C(C)C)CC1O (single isomer, unassigned; (+)) [Compound 2a, (+)-japonicol F] | 126 µM | 1.447 |  |  |  | 28 µM | 4.5
11 | CC(C)=CCCC(C)(O)C1Cc2c(O)cc(O)c(C(=O)C(C)C)c2O1 (single isomer, unassigned; (+)) [Compound 3a, (+)-japonicol G] | 79.5 µM | 1.337 |  | 21.7 µM | 3.66 |  | 
12 | CC(C)C(=O)c1c(O)cc(O)c(CC2C(C(C)(C)O)CCC2(C)O)c1O (stereo not shown) [Compound 8b] |  | 2.200 | > 300 µM | 158 µM | >1.89 |  | 
13 | Nc1ccn(C[C@@H](CO)OCP(=O)(O)O)c(=O)n1 [Cidofovir, reference compound] | > 1 µM |  |  |  |  | 0.0081 µM | > 123
14 | CC(C)=CCCC(C)(O)C1Cc2c(O)cc(O)c(C(=O)c3ccccc3)c2O1 (single isomer, unassigned; (+)) [Compound 4a, (+)-japonicol H] | 126 µM | 0.690 |  | 4.9 µM | 25.70 |  | 
15 | CC(C)C(=O)c1c(O)cc(O)c2c1OC1(C)CCC(C(C)(C)O)C2C1O (stereo not shown) [Compound 5a] | > 500 µM | 2.307 |  |  |  | 203 µM | > 2.46
16 | C=C(C)C1CCC2(C)Oc3c(c(O)cc(O)c3C(=O)C(C)C)CC12 (single isomer, unassigned; (-)) [Compound 1b, (−)-japonicol E] |  | 1.388 | 190 µM | 24.5 µM | 7.78 |  | 
17 | CC(C)C(=O)c1c(O)cc(O)c2c1OC1(C)CCC(C(C)(C)O)C2C1O (stereo not shown) [Compound 5b] |  | 2.149 | > 500 µM | 141 µM | >3.55 |  | 
